Laboratory results: patent publication US8927531B2, “Indanyloxydihydrobenzofuranylacetic acids” (Boehringer Ingelheim International GmbH, priority 2013, dated 2015)

What follows are compounds tested against human GPR40 receptor (Homo sapiens, UniProt O14842) (assay: IP1 accumulation measurements using the IPOne assay system in 1321N1 cells stably expressing human GPR40 receptor). Conditions: stimulation 1 h at 37° C.
Assay type: cell-based
Protocol: IP1 accumulation measurements using the IPOne assay system—1321N1 cells stably expressing human GPR40 receptor (Euroscreen, Belgium) are seeded 24 h before the assay in white 384-well plates in culture medium containing 10% FCS, 1% Na-Pyruvate and 400 μg/mL G418. IP1 is assayed according to the manufacturer's description (Cisbio Bioassays, France). In brief, the assay is started by substitution of the culture medium by stimulation buffer (Hepes 10 mM, CaCl2 1 mM, MgCl2 0.5 mM, KCl 4.2 mM, NaCl 146 mM, glucose 5.5 mM and LiCl 50 mM, pH 7.4). Cells are stimulated for 1 h at 37° C., 5% CO2 by addition of the compounds that are diluted in stimulation buffer containing LiCl. Assays are stopped by adding HTRF-conjugates (IP1-d2 and Anti-IP1 cryptate Tb) and lysis buffer, provided by the manufacturer. After an incubation time of 1 h at room temperature plates are measured using an EnVision™, Perkin Elmer. The obtained fluorescence ratios at 665/615 […] are then used to calculate the pEC50 values using Assay Explorer 3.3 Software (Accelrys, Inc.) by interpolation using an IP1 reference curve and subsequent sigmoidal curve fitting allowing for a variable hill slope.

Chain of human GPR40 receptor (O14842 whole entry): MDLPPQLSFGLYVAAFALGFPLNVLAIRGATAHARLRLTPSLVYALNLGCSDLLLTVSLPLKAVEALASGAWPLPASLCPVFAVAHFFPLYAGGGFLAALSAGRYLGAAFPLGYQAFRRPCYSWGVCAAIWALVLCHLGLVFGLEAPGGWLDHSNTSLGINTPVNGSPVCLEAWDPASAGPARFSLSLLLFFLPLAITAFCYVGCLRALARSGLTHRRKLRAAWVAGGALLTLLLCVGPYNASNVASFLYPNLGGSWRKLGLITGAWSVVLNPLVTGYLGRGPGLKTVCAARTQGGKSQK

`O=C(O)C[C@@H]1COc2cc(O[C@@H]3CCc4c3ccc(C(F)(F)F)c4CN3CCOCC3)ccc21` [Example 1, {(S)-6-[(R)-4-Morpholin-4-ylmethyl-5-trifluoromethyl-indan-1-yloxy]-2,3-dihydro-benzofuran-3-yl}-acetic acid] and `O=C(O)C[C@@H]1COc2cc(O[C@@H]3CCc4c3ccc(C(F)(F)F)c4CN3CCCOCC3)ccc21` [Example 9, {(S)-6-[(R)-[1,4]Oxazepan-4-ylmethyl-5-trifluoromethyl-indan-1-yloxy]-2,3-dihydro-benzofuran-3-yl}-acetic acid] are the same in EC50: 3 nM for the first, 3 nM for the second.

Going from `CC(C)(C)OC(=O)N1CCN(Cc2c(C(F)(F)F)ccc3c2CC[C@H]3Oc2ccc3c(c2)OC[C@H]3CC(=O)O)CC1` [Example 2, {(S)-6-[(R)-4-(4-tert-Butoxycarbonyl-piperazin-1-ylmethyl)-5-trifluoromethyl-indan-1-yloxy]-2,3-dihydro-benzofuran-3-yl}-acetic acid] to `COC(=O)N1CCN(Cc2c(C(F)(F)F)ccc3c2CC[C@H]3Oc2ccc3c(c2)OC[C@H]3CC(=O)O)CC1` [Example 17, {(S)-6-[(R)-4-(4-Methoxycarbonyl-piperazin-1-ylmethyl)-5-trifluoromethyl-indan-1-yloxy]-2,3-dihydro-benzofuran-3-yl}-acetic acid], the EC50 falls from 20 nM to 4 nM (5-fold). The second is the more potent here.

First: O=C(O)C[C@@H]1COc2cc(O[C@@H]3CCc4c3ccc(C(F)(F)F)c4CN3CCSCC3)ccc21 [Example 3, {(S)-6-[(R)-4-Thiomorpholin-4-ylmethyl-5-trifluoromethyl-indan-1-yloxy]-2,3-dihydro-benzofuran-3-yl}-acetic acid]
Second: O=C(O)C[C@@H]1COc2cc(O[C@@H]3CCc4c3ccc(C(F)(F)F)c4CN3CCCC3)ccc21 [Example 4, {(S)-6-[(R)-4-Pyrrolidin-1-ylmethyl-5-trifluoromethyl-indan-1-yloxy]-2,3-dihydro-benzofuran-3-yl}-acetic acid]
The EC50 of the first is 31-fold lower: 3 nM for the first, 92 nM for the second.

`O=C(O)C[C@@H]1COc2cc(O[C@@H]3CCc4c3ccc(C(F)(F)F)c4CN3CCCCC3)ccc21` [Example 5, {(S)-6-[(R)-4-Piperidin-1-ylmethyl-5-trifluoromethyl-indan-1-yloxy]-2,3-dihydro-benzofuran-3-yl}-acetic acid] and `O=C(O)C[C@@H]1COc2cc(O[C@@H]3CCc4c3ccc(C(F)(F)F)c4CN3CCCCCC3)ccc21` [Example 19, {(S)-6-[(R)-4-Azepan-1-ylmethyl-5-trifluoromethyl-indan-1-yloxy]-2,3-dihydro-benzofuran-3-yl}-acetic acid] are within 1.5-fold of each other in EC50: 5 nM for the first, 7 nM for the second.

Going from `Cc1nc2c(s1)CN(Cc1c(C(F)(F)F)ccc3c1CC[C@H]3Oc1ccc3c(c1)OC[C@H]3CC(=O)O)CC2` [Example 6, {(S)-6-[(R)-4-(2-Methyl-4,5,6,7-tetrahydro-thiazolo[5,4-c]pyridin-5-ylmethyl)-5-trifluoromethyl-indan-1-yloxy]-2,3-dihydro-benzofuran-3-yl}-acetic acid] to `O=C(O)C[C@@H]1COc2cc(O[C@@H]3CCc4c3ccc(C(F)(F)F)c4CN3CCc4ncccc4C3)ccc21` [Example 28, {(S)-6-[(R)-4-(7,8-Dihydro-[1,6]naphthyridin-6-ylmethyl)-5-trifluoromethyl-indan-1-yloxy]-2,3-dihydro-benzofuran-3-yl}-acetic acid], the EC50 rises from 2 nM to 4 nM (2-fold). The first is the more potent here.

Compared with `O=C(O)C[C@@H]1COc2cc(O[C@@H]3CCc4c3ccc(C(F)(F)F)c4CN3CCC(F)(F)CC3)ccc21` [Example 7, {(S)-6-[(R)-4-(4,4-Difluoro-piperidin-1-ylmethyl)-5-trifluoromethyl-indan-1-yloxy]-2,3-dihydro-benzofuran-3-yl}-acetic acid], `CC1(O)CCN(Cc2c(C(F)(F)F)ccc3c2CC[C@H]3Oc2ccc3c(c2)OC[C@H]3CC(=O)O)CC1` [Example 14, {(S)-6-[(R)-4-(4-Hydroxy-4-methyl-piperidin-1-ylmethyl)-5-trifluoromethyl-indan-1-yloxy]-2,3-dihydro-benzofuran-3-yl}-acetic acid] is 5-fold higher in EC50: 3 nM for the first, 15 nM for the second.

`O=C(O)C[C@@H]1COc2cc(O[C@@H]3CCc4c3ccc(C(F)(F)F)c4CN3CCC4(CC3)CC4)ccc21` [Example 8, {(S)-6-[(R)-4-(6-Aza-spiro[2.5]oct-6-ylmethyl)-5-trifluoromethyl-indan-1-yloxy]-2,3-dihydro-benzofuran-3-yl}-acetic acid] and `O=C(O)C[C@@H]1COc2cc(O[C@@H]3CCc4c3ccc(C(F)(F)F)c4CN3CCC4(CCCO4)CC3)ccc21` [Example 11, {(S)-6-[(R)-4-(1-Oxa-8-aza-spiro[4.5]dec-8-ylmethyl)-5-trifluoromethyl-indan-1-yloxy]-2,3-dihydro-benzofuran-3-yl}-acetic acid] are within 1.5-fold of each other in EC50: 5 nM for the first, 6 nM for the second.

Compared with `COC1CCN(Cc2c(C(F)(F)F)ccc3c2CC[C@H]3Oc2ccc3c(c2)OC[C@H]3CC(=O)O)CC1` [Example 10, {(S)-6-[(R)-4-(4-Methoxy-piperidin-1-ylmethyl)-5-trifluoromethyl-indan-1-yloxy]-2,3-dihydro-benzofuran-3-yl}-acetic acid], `O=C(O)C[C@@H]1COc2cc(O[C@@H]3CCc4c3ccc(C(F)(F)F)c4CN3CCC(CO)CC3)ccc21` [Example 13, {(S)-6-[(R)-4-(4-Hydroxymethyl-piperidin-1-ylmethyl)-5-trifluoromethyl-indan-1-yloxy]-2,3-dihydro-benzofuran-3-yl}-acetic acid] is 1.8-fold higher in EC50: 5 nM for the first, 9 nM for the second.

`O=C(O)C[C@@H]1COc2cc(O[C@@H]3CCc4c3ccc(C(F)(F)F)c4CN3CC4CC4C3)ccc21` (stereo partly drawn) [Example 12, {(S)-6-[(R)-4-(3-Aza-bicyclo[3.1.0]hex-3-ylmethyl)-5-trifluoromethyl-indan-1-yloxy]-2,3-dihydro-benzofuran-3-yl}-acetic acid] and `O=C(O)C[C@@H]1COc2cc(O[C@@H]3CCc4c3ccc(C(F)(F)F)c4CN3CC4CCC(C3)O4)ccc21` [Example 24, {(S)-6-[(R)-4-(8-Oxa-3-aza-bicyclo[3.2.1]oct-3-ylmethyl)-5-trifluoromethyl-indan-1-yloxy]-2,3-dihydro-benzofuran-3-yl}-acetic acid] are within 1.5-fold of each other in EC50: 20 nM for the first, 14 nM for the second.

Going from `O=C(O)C[C@@H]1COc2cc(O[C@@H]3CCc4c3ccc(C(F)(F)F)c4CN3CCNCC3)ccc21` [Example 15, {(S)-6-[(R)-4-piperazin-1-ylmethyl-5-trifluoromethyl-indan-1-yloxy]-2,3-dihydro-benzofuran-3-yl}-acetic acid] to `CC(=O)N1CCN(Cc2c(C(F)(F)F)ccc3c2CC[C@H]3Oc2ccc3c(c2)OC[C@H]3CC(=O)O)CC1` [Example 16, {(S)-6-[(R)-4-(4-Acetyl-piperazin-1-ylmethyl)-5-trifluoromethyl-indan-1-yloxy]-2,3-dihydro-benzofuran-3-yl}-acetic acid], the EC50 falls from 468 nM to 16 nM (29-fold). The second is the more potent here.

Compared with `C[C@@H]1CN(Cc2c(C(F)(F)F)ccc3c2CC[C@H]3Oc2ccc3c(c2)OC[C@H]3CC(=O)O)C[C@H](C)O1` [Example 18, {(S)-6-[(R)-4-(cis-2,6-Dimethyl-morpholin-4-ylmethyl)-5-trifluoromethyl-indan-1-yloxy]-2,3-dihydro-benzofuran-3-yl}-acetic acid], `CC1(C)CN(Cc2c(C(F)(F)F)ccc3c2CC[C@H]3Oc2ccc3c(c2)OC[C@H]3CC(=O)O)CCO1` [Example 23, {(S)-6-[(R)-4-(2,2-Dimethyl-morpholin-4-ylmethyl)-5-trifluoromethyl-indan-1-yloxy]-2,3-dihydro-benzofuran-3-yl}-acetic acid] is 1.6-fold lower in EC50: 11 nM for the first, 7 nM for the second. The second is the more potent here.

`CCOC(=O)N1CCN(Cc2c(C(F)(F)F)ccc3c2CC[C@H]3Oc2ccc3c(c2)OC[C@H]3CC(=O)O)CC1` [Example 20, {(S)-6-[(R)-4-(4-Ethoxycarbonyl-piperazin-1-ylmethyl)-5-trifluoromethyl-indan-1-yloxy]-2,3-dihydro-benzofuran-3-yl}-acetic acid] and `CCC(=O)N1CCN(Cc2c(C(F)(F)F)ccc3c2CC[C@H]3Oc2ccc3c(c2)OC[C@H]3CC(=O)O)CC1` [Example 21, {(S)-6-[(R)-4-(4-Propionyl-piperazin-1-ylmethyl)-5-trifluoromethyl-indan-1-yloxy]-2,3-dihydro-benzofuran-3-yl}-acetic acid] are within 1.5-fold of each other in EC50: 9 nM for the first, 12 nM for the second.

Going from `CC(C)OC(=O)N1CCN(Cc2c(C(F)(F)F)ccc3c2CC[C@H]3Oc2ccc3c(c2)OC[C@H]3CC(=O)O)CC1` [Example 22, {(S)-6-[(R)-4-(4-Isopropoxycarbonyl-piperazin-1-ylmethyl)-5-trifluoromethyl-indan-1-yloxy]-2,3-dihydro-benzofuran-3-yl}-acetic acid] to `CN1CCN(Cc2c(C(F)(F)F)ccc3c2CC[C@H]3Oc2ccc3c(c2)OC[C@H]3CC(=O)O)CC1=O` [Example 26, {(S)-6-[(R)-4-(4-Methyl-3-oxo-piperazin-1-ylmethyl)-5-trifluoromethyl-indan-1-yloxy]-2,3-dihydro-benzofuran-3-yl}-acetic acid], the EC50 rises from 14 nM to 26 nM (1.9-fold). The first is the more potent here.

`O=C(O)C[C@@H]1COc2cc(O[C@@H]3CCc4c3ccc(C(F)(F)F)c4CN3C4CCCC3CC4)ccc21` [Example 25, {(S)-6-[(R)-4-(8-Aza-bicyclo[3.2.1]oct-8-ylmethyl)-5-trifluoromethyl-indan-1-yloxy]-2,3-dihydro-benzofuran-3-yl}-acetic acid] and `O=C(O)C[C@@H]1COc2cc(O[C@@H]3CCc4c3ccc(C(F)(F)F)c4CN3CCn4ccnc4C3)ccc21` [Example 27, {(S)-6-[(R)-4-(5,6-Dihydro-8H-imidazo[1,2-a]pyrazin-7-ylmethyl)-5-trifluoromethyl-indan-1-yloxy]-2,3-dihydro-benzofuran-3-yl}-acetic acid] are within 1.5-fold of each other in EC50: 15 nM for the first, 17 nM for the second.
